Source: US20130267494A1, “1,4-OXAZEPANE DERIVATIVES” (priority 2010, published 2013)
Where a name gives a salt, the structure may show the parent alone.

Assays:
[1] = molecular target: T1, human norepinephrine transporter (Homo sapiens, UniProt P23975); experiment: Inhibitory action on human norepinephrine transporter ([3H]-norepinephrine uptake in CHO cells); format: cell-based; details: CHO, compound 1 μM; relative to inhibitory activity of 10 μM DMI as 100%; read-out: inhibitory rate (%)
T1 construct: expressed in transfected cells
T1 sequence (P23975 whole entry): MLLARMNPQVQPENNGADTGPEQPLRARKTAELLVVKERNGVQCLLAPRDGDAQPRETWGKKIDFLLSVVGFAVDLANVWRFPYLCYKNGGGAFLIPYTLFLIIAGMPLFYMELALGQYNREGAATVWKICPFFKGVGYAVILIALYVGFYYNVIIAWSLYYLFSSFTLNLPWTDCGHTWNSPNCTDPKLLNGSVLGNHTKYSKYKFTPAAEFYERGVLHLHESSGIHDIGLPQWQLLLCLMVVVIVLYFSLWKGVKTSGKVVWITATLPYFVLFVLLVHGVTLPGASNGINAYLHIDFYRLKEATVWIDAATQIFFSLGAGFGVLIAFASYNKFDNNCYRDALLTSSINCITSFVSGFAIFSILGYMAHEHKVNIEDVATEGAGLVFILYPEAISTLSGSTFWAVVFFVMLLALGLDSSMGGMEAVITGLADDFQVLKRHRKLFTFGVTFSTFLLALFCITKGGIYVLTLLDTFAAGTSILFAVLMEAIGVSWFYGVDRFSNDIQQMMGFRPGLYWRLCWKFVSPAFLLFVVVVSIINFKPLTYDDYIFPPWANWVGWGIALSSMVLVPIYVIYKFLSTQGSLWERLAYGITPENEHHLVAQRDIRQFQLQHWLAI
In short: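 Stably transfected CHO-K1 cells plated overnight, then given test compound and [3H]-norepinephrine (20 nM final, from 200 nM) in HEPES-buffered saline with 0.5% BSA for 45 min. After PBS washes, retained radioactivity counted by scintillation. Inhibition at 10 μM or 1 μM compound expressed relative to 10 μM DMI as 100%.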

SD female rats = experiment: Measurement of urethral resistance increasing effect (leak point pressure, oral administration); format: in vivo, rat
Description: The urethral resistance increasing effect in rat was measured by a modified method of Matsumoto et al. (WO2009/063992) as follows. That is, SD female rats (CLEA Japan, Inc.) were anesthetized with isoflurane (1.0%; Abbott), and the spinal cord was transected at Th8-9 to avoid the voiding reflex. After laparotomy, an intravesical pressure measurement catheter and a saline infusion catheter (PE-100; Clay Adams) were inserted into the bladder. Thereafter, the abdomen of the rat was closed with aronalpha A “Sankyo” (Daiichi Sankyo). The rat with an inserted catheter was placed in a Bollman cage (KN-326 Bollman cage TYPE III; Natsume). The intravesical pressure measurement catheter was connected to a computer via a pressure transducer (DX-100; Nihon Koden), an amplifier (RPM-6008M; Nihon Koden/303638; SAN-EI), and a multi-channel data analyzer (MP150/MP100; Biopack), and changes in the intravesical pressure were recorded on a hard disc at a frequency of 100 samples/sec. The saline infusion catheter was connected to a 50 mL syringe (Terumo) filled with saline colored with Evans Blue (Wako). The saline was infused into the bladder from the 50 mL syringe filled with saline at a rate of 0.1 mL/sec by using an infusion pump (Kds100; KD Scientific). When the saline leaked from the urethral orifice, infusion was discontinued, and the saline in the bladder was released. The maximum pressure observed during infusion of saline into the bladder and leakage thereof was taken as an LPP (Leak point pressure) value. The measurement was repeated until the LPP value was stabilized, and an average of continuous three stable LPP values was taken as the result. In addition, the measurement of drug effect was started 1 hr after the animal was placed in the Bollman cage. The LPP value (Pre value) was measured, a drug was orally administered, and the measurement of LPP value (Post value) was again started 15 min, 30 min, 1 hr, 2 hr and 4 hr after administration. The urethral resistance increasing effect by the drug was shown by the difference between the LPP value (Post value) and LPP value (Pre value). The drug was orally administered at 2.0 mL/kg, using 0.5% methylcellulose as a vehicle. For detection of a significant difference in the urethral resistance increasing effect by the drug as compared to the vehicle, the following method was used. For comparison of 3 or more groups, the Williams' test was used for a parametric test, and the Shirley-Williams' test was used for a non-parametric test. For comparison of 2 groups, the Student's t-test was used for a parametric test, and the […] was used for a non-parametric test.

| SMILES | inhibition at 1 µM [1] | urethral resistance increasing effect (cmH2O) (SD female rats; 0.3 mg/kg oral, 15 min later) | urethral resistance increasing effect (cmH2O) (SD female rats; 0.3 mg/kg oral, 30 min later) | urethral resistance increasing effect (cmH2O) (SD female rats; 1.0 mg/kg oral, 15 min later) | urethral resistance increasing effect (cmH2O) (SD female rats; 1.0 mg/kg oral, 30 min later) | urethral resistance increasing effect (cmH2O) (SD female rats; 3.0 mg/kg oral, 15 min later) | urethral resistance increasing effect (cmH2O) (SD female rats; 3.0 mg/kg oral, 30 min later) | urethral resistance increasing effect (cmH2O) (SD female rats; 10.0 mg/kg oral, 15 min later) | urethral resistance increasing effect (cmH2O) (SD female rats; 10.0 mg/kg oral, 30 min later) | urethral resistance increasing effect (cmH2O) (SD female rats; 30.0 mg/kg oral, 15 min later) | urethral resistance increasing effect (cmH2O) (SD female rats; 30.0 mg/kg oral, 30 min later) |
| --- | --- | --- | --- | --- | --- | --- | --- | --- | --- | --- | --- |
| OC[C@H](O)[C@@H]1OCCNC[C@H]1c1ccc(Cl)c(Cl)c1 [Example 45, (1S)-1-[(6R,7R)-6-(3,4-dichlorophenyl)-1,4-oxazepan-7-yl]ethane-1,2-diol monohydrochloride] | 105% | 6.4 ± 1.3 cmH2O | 9.3 ± 3.3 cmH2O | 10.0 ± 2.6 cmH2O | 13.4 ± 1.2 cmH2O | 16.9 ± 1.4 cmH2O | 17.5 ± 2.8 cmH2O | 21.0 ± 2.0 cmH2O | 22.1 ± 2.0 cmH2O | – | – |
| O=c1[nH]c(-c2cccnc2O[C@@H]2CNCCO[C@H]2c2ccc(Cl)c(F)c2)no1 [Example 556, 3-(2-{[(6R,7S)-7-(4-chloro-3-fluorophenyl)-1,4-oxazepan-6-yl]oxy}pyridin-3-yl)-1,2,4-oxadiazol-5(4H)-one monohydrochloride] | 101% | – | – | – | – | 6.0 ± 2.0 cmH2O | 5.0 ± 2.9 cmH2O | 13.4 ± 1.7 cmH2O | 10.6 ± 1.8 cmH2O | 17.8 ± 3.4 cmH2O | 17.5 ± 2.3 cmH2O |
| O=c1[nH]c(-c2ccccc2O[C@@H]2CNCCO[C@H]2c2ccc(Cl)c(F)c2)no1 [Example 577, 3-(2-{[(6R, 7S)-7-(4-chloro-3-fluoro-phenyl)-1,4-oxazepan-6-yl]oxy}phenyl)-1,2,4-oxadiazol-5(4H)-one] | 97% | – | – | – | – | 14.3 ± 3.0 cmH2O | 13.1 ± 3.1 cmH2O | 18.7 ± 1.8 cmH2O | 15.4 ± 1.5 cmH2O | – | – |
| O=c1[nH]c(-c2ncccc2O[C@@H]2CNCCO[C@H]2c2ccc(Cl)c(F)c2)no1 [Example 584, 3-(3-{[(6R, 7S)-7-(4-chloro-3-fluorophenyl)-1,4-oxazepan-6-yl]oxy}pyridin-2-yl)-1,2,4-oxadiazol-5(4H)-one] | 107% | – | – | – | – | 9.5 ± 3.5 cmH2O | 7.2 ± 2.6 cmH2O | 18.4 ± 3.4 cmH2O | 16.2 ± 3.3 cmH2O | – | – |
